# According to PubChem BioAssay (NCI):
#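 96-well plates; 48 h exposure; 5 concentrations. Endpoints by linear interpolation between flanking doses. Not reached: highest tested concentration assigned. GI50 marks 50% less growth. TGI is the concentration that stops growth completely.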
# How the values were obtained:
# Test in all cases: NCI anticancer screen, dose series, 48 h
# [1] = system: SF-295 CNS
# [2] = system: MDA-MB-231 breast
# [3] = system: HT29 colon
# [4] = system: UACC-257 melanoma
# [5] = system: HCT-116 colon
# [6] = system: NCI-H226 lung
# [7] = system: LOX IMVI melanoma
# [8] = system: UACC-62 melanoma
# [9] = system: DU-145 prostate
# [10] = system: OVCAR-8 ovarian
# [11] = system: RXF 393 renal
# [12] = system: MDA-MB-435
# [13] = system: ACHN renal
# [14] = system: K-562 leukemia
# [15] = system: HL-60(TB) leukemia
# [16] = system: HCT-15 colon
# [17] = system: SK-OV-3 ovarian
# [18] = system: COLO 205 colon
# [19] = system: SF-539 CNS
# [20] = system: KM12 colon
# [21] = system: SK-MEL-2 melanoma
# [22] = system: CAKI-1 renal
# [23] = system: NCI/ADR-RES ovarian
# [24] = system: NCI-H522 lung
# [25] = system: HOP-62 NSCLC
# [26] = system: A549 NSCLC
# [27] = system: MOLT-4 leukemia
# [28] = system: 786-0 renal
# [29] = system: T-47D breast
# [30] = system: RPMI-8226 leukemia
# [31] = system: HOP-92 NSCLC
# [32] = system: NCI-H23 lung
# [33] = system: SN12C renal
# [34] = system: SW-620 colon
# [35] = system: MCF7 breast
# [36] = system: HS 578T breast
# [37] = system: SNB-19 CNS
# [38] = system: SK-MEL-28 melanoma
# [39] = system: UO-31 renal
# [40] = system: SF-268 CNS
# [41] = system: U251 CNS
# [42] = system: SK-MEL-5 melanoma
# [43] = system: HCC-2998 colon
# [44] = system: OVCAR-3 ovarian
# [45] = system: OVCAR-5 ovarian
# [46] = system: BT-549 breast
# [47] = system: CCRF-CEM leukemia
# [48] = system: A498 renal
# [49] = system: IGROV1 ovarian
# [50] = system: SR leukemia
# [51] = system: MALME-3M melanoma
# [52] = system: OVCAR-4 ovarian
# [53] = system: NCI-H460 lung
# [54] = system: SNB-75 CNS
# [55] = system: PC-3 prostate
# [56] = system: TK-10 renal
smiles,measurement,setting,value
COc1cc(Nc2ccnc(NCCNc3ccnc4cc(Cl)ccc34)n2)cc(OC)c1,GI50,[1],961 nM
same,TGI,[1],2430 nM
same,GI50,[2],1410 nM
same,TGI,[2],3740 nM
same,GI50,[3],588 nM
same,TGI,[3],3760 nM
same,GI50,[4],1820 nM
same,TGI,[4],3870 nM
same,GI50,[5],830 nM
same,TGI,[5],2580 nM
same,GI50,[6],2950 nM
same,TGI,[6],22800 nM
same,GI50,[7],1470 nM
same,TGI,[7],2970 nM
same,GI50,[8],1600 nM
same,TGI,[8],3080 nM
same,GI50,[9],4030 nM
same,TGI,[9],15600 nM
same,GI50,[10],2520 nM
same,TGI,[10],11500 nM
same,GI50,[11],1380 nM
same,TGI,[11],2940 nM
same,GI50,[12],1550 nM
same,TGI,[12],2950 nM
same,GI50,[13],1950 nM
same,TGI,[13],5160 nM
same,GI50,[14],843 nM
same,TGI,[14],3820 nM
same,GI50,[15],2220 nM
same,TGI,[15],5280 nM
same,GI50,[16],1370 nM
same,TGI,[16],3420 nM
same,GI50,[17],8580 nM
same,TGI,[17],21000 nM
same,GI50,[18],1610 nM
same,TGI,[18],3460 nM
same,GI50,[19],1480 nM
same,TGI,[19],2860 nM
same,GI50,[20],3340 nM
same,TGI,[20],14200 nM
same,GI50,[21],1910 nM
same,TGI,[21],4180 nM
same,GI50,[22],2170 nM
same,TGI,[22],6590 nM
same,GI50,[23],3790 nM
same,TGI,[23],16400 nM
same,GI50,[24],1780 nM
same,TGI,[24],5190 nM
same,GI50,[25],2140 nM
same,TGI,[25],8360 nM
same,GI50,[26],3230 nM
same,TGI,[26],14800 nM
same,GI50,[27],1840 nM
same,TGI,[27],8900 nM
same,GI50,[28],1560 nM
same,TGI,[28],2900 nM
same,GI50,[29],1730 nM
same,TGI,[29],4450 nM
same,GI50,[30],1410 nM
same,TGI,[30],4450 nM
same,GI50,[31],811 nM
same,TGI,[31],4450 nM
same,GI50,[32],1860 nM
same,TGI,[32],14100 nM
same,GI50,[33],2190 nM
same,TGI,[33],12400 nM
same,GI50,[34],1660 nM
same,TGI,[34],4180 nM
same,GI50,[35],1610 nM
same,TGI,[35],3970 nM
same,GI50,[36],2180 nM
same,TGI,[36],5930 nM
same,GI50,[37],2380 nM
same,TGI,[37],8900 nM
same,GI50,[38],1760 nM
same,TGI,[38],3290 nM
same,GI50,[39],1190 nM
same,TGI,[39],2810 nM
same,GI50,[40],3100 nM
same,TGI,[40],12500 nM
same,GI50,[41],1610 nM
same,TGI,[41],4270 nM
same,GI50,[42],1690 nM
same,TGI,[42],3240 nM
same,GI50,[43],1750 nM
same,TGI,[43],3780 nM
same,GI50,[44],1890 nM
same,TGI,[44],5030 nM
same,GI50,[45],1660 nM
same,TGI,[45],6270 nM
same,GI50,[46],1860 nM
same,TGI,[46],4240 nM
same,GI50,[47],2450 nM
same,TGI,[47],9690 nM
same,GI50,[48],175 nM
same,TGI,[48],2200 nM
same,GI50,[49],1890 nM
same,TGI,[49],5560 nM
same,GI50,[50],1650 nM
same,TGI,[50],6850 nM
same,GI50,[51],1860 nM
same,TGI,[51],3690 nM
same,GI50,[52],1330 nM
same,TGI,[52],6560 nM
same,GI50,[53],1450 nM
same,TGI,[53],5310 nM
same,GI50,[54],1730 nM
same,TGI,[54],3520 nM
same,GI50,[55],2510 nM
same,TGI,[55],14400 nM
same,GI50,[56],3720 nM
same,TGI,[56],9710 nM
